Assay results: patent publication US6136817A, “Opioid receptor antagonist compounds” (Astra AB, priority 1994, dated 2000)
Where a name gives a salt, the structure may show the parent alone.

Target: T1, δ opioid receptors (Mus musculus, UniProt P32300)
T1 construct: antagonism of the delta-selective agonist DPDPE
Assay: opioid antagonism against receptor selective agonists (DAMGO, μ; Cl 977, κ; DPDPE, δ) in electrical stimulated guinea-pig ileum (GPI) and mouse vas deferens (MVD) preparations
Type: cell-based
Procedure: δ-Antagonism was assessed using the electrical stimulated guinea-pig ileum longitudinal muscle preparation (GPI; containing μ and κ opioid receptors) and mouse vas deferens preparation (MVD; containing μ, κ and δ opioid receptors) (H. Schmidhammer et al., J. Med. Chem., Vol. 32: 418-421, 1989; H Schnmidhammer et al., J. Med. Chem., Vol. 33:1200-1206,1990). The activity of the compound 1 of the Examples for inhibiting the suppression of contraction of the organs by three receptor selective agonists (DAMGO, μ; Cl 977, κ; DPDPE, δ) was measured.

T1 sequence (P32300 whole entry): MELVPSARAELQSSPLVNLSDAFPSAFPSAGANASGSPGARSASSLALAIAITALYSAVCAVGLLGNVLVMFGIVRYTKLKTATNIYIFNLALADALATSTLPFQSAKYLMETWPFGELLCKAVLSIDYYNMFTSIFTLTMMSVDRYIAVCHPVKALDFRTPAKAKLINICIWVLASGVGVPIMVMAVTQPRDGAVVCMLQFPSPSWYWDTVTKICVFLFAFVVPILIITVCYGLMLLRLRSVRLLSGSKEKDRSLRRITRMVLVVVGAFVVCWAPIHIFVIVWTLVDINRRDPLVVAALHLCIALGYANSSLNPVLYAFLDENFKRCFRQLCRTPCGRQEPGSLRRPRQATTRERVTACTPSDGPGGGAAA

CCO[C@@]12Cc3c([nH]c4ccccc34)[C@]3(C)Oc4c(O)ccc5c4[C@@]31CCN(CC1CC1)[C@@H]2C5 [compound 1, 17-(Cyclopropylmethyl)-6,7-dehydro-4,5α-epoxy-14-ethoxy-3-hydroxy-5-methyl-6,7-2',3'-indolomorphinan hydrochloride]
opioid antagonism (inhibiting the suppression of contraction of the organs by receptor selective agonists) (GPI and MVD preparations, agonists DAMGO (μ), Cl 977 (κ), DPDPE (δ)): δ-selective opioid antagonism | κ/δ selectivity ratio (antagonism of Cl 977 (κ) vs DPDPE (δ)): very good | μ/δ selectivity ratio (antagonism of DAMGO (μ) vs DPDPE (δ)): very good
